Here are results for two compounds from US9714222B2, “Methods and compositions for treating Ewings sarcoma family of tumors” (GEORGETOWN UNIVERSITY, priority 2012, dated 2017).

The subject of test [1] is TC71 (human ESFT cell line). The experiment in a line: IC50 activity in TC71 cells. The format is cell-based. As to the method:
Compounds provided in Table 2 were prepared using methods similar to those described herein. The structures and IC50 activities of particular compounds in PANC1 (a human pancreatic carcinoma), TC32 (human ESFT cell line), and TC71 (human ESFT cell line) cells are summarized in Table 2.
Growth inhibition of ESFT cells was measured for various concentrations of particular compounds.

A further test has as its target T1, EWS-FLI1/RHA interaction (Homo sapiens, UniProt Q01543+Q01844).
T1 construct: endogenous in cells; host or cells: TC32 cells
T1 sequence (Q01844+Q01543 with tags, fused parts or gaps): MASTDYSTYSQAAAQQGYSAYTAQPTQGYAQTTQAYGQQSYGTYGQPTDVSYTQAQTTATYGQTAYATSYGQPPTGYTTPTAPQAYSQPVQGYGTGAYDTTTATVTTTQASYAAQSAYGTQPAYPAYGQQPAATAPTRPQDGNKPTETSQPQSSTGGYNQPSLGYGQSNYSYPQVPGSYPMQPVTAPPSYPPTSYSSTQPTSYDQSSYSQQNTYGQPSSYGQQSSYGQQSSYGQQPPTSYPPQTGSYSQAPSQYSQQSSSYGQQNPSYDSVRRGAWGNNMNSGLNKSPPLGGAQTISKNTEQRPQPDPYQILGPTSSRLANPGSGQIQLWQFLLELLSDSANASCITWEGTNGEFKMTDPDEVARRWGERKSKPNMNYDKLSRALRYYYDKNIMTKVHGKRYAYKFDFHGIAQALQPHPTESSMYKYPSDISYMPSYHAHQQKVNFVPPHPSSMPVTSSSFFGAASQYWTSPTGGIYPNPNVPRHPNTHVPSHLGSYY
In words: Immunoblot of co-precipitated protein lysates from treated TC32 cells. The format is cell-based. Particulars: FIG. 4. From the text: The disruption of the interaction of RHA with EWS-FLI1 presents an avenue for the development of a class of small molecules as potential therapeutics against the Ewing's family sarcoma tumors.
A general note: A western blot detects proteins with antibodies after separation by electrophoresis.

The next test concerns EWS-FLI1 and ESFT cells. Conditions: cited from earlier work.

As to `CN(C)c1ccc(C(=O)CC2(O)C(=O)Nc3c(Cl)ccc(Cl)c32)cc1` (centres unmarked) [PT-1-17], in test [1], the “potency compared with YK-4-279” value is “appeared to be more potent”.

With `COc1ccc(C(=O)CC2(O)C(=O)Nc3c(Cl)ccc(Cl)c32)cc1` (racemic) [YK-4-279], the “disruption of interaction of RHA with EWS-FLI1” value at EWS-FLI1/RHA interaction (co-precipitation) is “did disrupt their interactions”. At EWS-FLI1/RHA interaction (immunoblot), the “effect on level of EWS-FLI1 or RHA” value is “did not directly affect the level of EWS-FLI1 or RHA”. In the test with EWS-FLI1 and ESFT cells, the caspase-3 activity result is given as “increase”; the “functional inhibition of EWS-FLI1 and ESFT cells” value is “functionally inhibit EWS-FLI1 and ESFT cells”.
